Laboratory results taken from PubChem BioAssay AID2060504 (Molecular Pharmacology Branch, DTP, NCI, 2025).
Values joined by “and” are separate entries in the source; they are usually repeats but may differ in a detail not shown here. Equal values may be shown once.

System: 636577-100-R-J1-PDC complex spheroid viability
Assay: Anticancer human tumor 636577-100-R-J1-PDC patient-derived endometrial adenocarcinoma cell line growth inhibition [GQUAD]
Conditions: for viability, T/C: stronger effect = lower value
Description: DNA G-quadruplex Stabilizer Agents in Combinations in Complex Spheroids
A high-throughput screen of multi-cell type tumor spheroids was designed to identify active combinations of DNA G-quadruplex stabilizer agents and targeted small molecules. Complex spheroids include a stromal component modeled by human endothelial cells (HUVEC) and fibroblasts modeled by human mesenchymal stem cells (MSCs). The concentration ranges selected for each drug and investigational agent were based upon clinically achievable concentrations if the clinical Cmax of the agent was known.
Compounds. The drugs and investigational agents: pidnarulex (CX-5461; NSC782164), APTO-253 (NSC789042), BRACO-19 (NSC847499), peposertib (NSC802822), ceralasertib (NSC780249), elimusertib (NSC800525), camonsertib (NSC841442), AZD-1390 (NSC803789), olaparib (NSC753686), talazoparib (NSC767125), ART-558 (NSC835418), sotorasib (NSC818433), MRTX-1133 (NSC836407), SN-38 (NSC673596), topotecan (NSC609699), etoposide (NSC141540), doxorubicin (NSC123127), gemcitabine (NSC613327), 5-fluorouracil (NSC19893), paclitaxel (NSC125973), vemurafenib (NSC761431), panobinostat (NSC761190), R-306465 (JNJ-16241199; NSC773264), adavosertib (NSC754352), TP-3654 (NSC805149), carboplatin (NSC241240), KSQ-4279 (NSC840948), and staurosporine (NSC755774) were obtained from the National Cancer Institute (NCI) Developmental Therapeutics Program Chemical Repository (34). The FDA-approved anticancer drug set is available from the NCI Developmental Therapeutics Program. […] The stock solutions were prepared in dimethyl sulfoxide (DMSO, Sigma-Aldrich, St. Louis, MO, cat. D2650) at 800-fold the tested concentration and stored at -70 degrees C prior to their use. All drugs and investigational agents were tested over a range starting from a high concentration at or near the clinical Cmax and decreasing in half-log increments. If the clinical Cmax for an agent had not been determined, the highest concentration tested was 10 microM.
2.3 Cell Culture. All cells were maintained in an incubator at 37 degrees C and 5% CO2 with 95% humidity. The PDC lines were cultured according to standard operating procedures established by the NCI PDMR. All PDCs were thawed and cultured in Matrigel-coated flasks prepared with a working solution of 1X Ham's F-12 nutrient mix, without supplementation (Invitrogen, cat. 11765054), 100 U/mL penicillin-streptomycin (Invitrogen, cat. 15140122), and 2.5% Matrigel (Corning Inc., cat. 354248) for the first three passages. The 857933-349-R-J2-PDC line was cultured in 6C/Colon 1B media, which includes advanced DMEM/F-12 (Thermo Fisher Scientific, cat. 12634028), 10 mM HEPES (Thermo Fisher Scientific, cat. 15630080), 1X GlutaMAX supplement (Thermo Fisher Scientific, cat. 35050061), 0.1 mg/mL primocin (InvivoGen, cat. ant-pm-2), 10% defined fetal bovine serum, heat inactivated (HyClone Laboratories Inc., cat. SH30070.03HI), 50% L-WRN conditioned media (ATCC, cat. CRL-3276), 1.25 mM N-Acetyl-L-cysteine (Sigma-Aldrich, cat. A9165), 10 mM nicotinamide (Sigma-Aldrich, cat. N0636), 1X B-27 supplement (Thermo Fisher Scientific, cat. 17504044), 1X N-2 supplement (Thermo Fisher Scientific, cat. 17502048), 10 microM Y-27632 dihydrochloride (Tocris Bioscience, cat. 1254), and 50 ng/mL human EGF recombinant protein (Thermo Fisher Scientific, cat. PHG0311). The 485176-168-R4-J1-PDC line was cultured in Panc media, which includes all 6C/Colon 1B media components plus 100 ng/mL human FGF-10 (Thermo Fisher Scientific, cat. 100-26), 500 nM SB-431542 (Selleckchem, cat. S1067), and gastrin (Tocris, cat. 3006).
[…]
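Further: viability read after seven days of drug exposure.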
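Wherever viability, T/C is given: luminescence signal used as a proxy for viable cells; 100% = DMSO vehicle control wells.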

For `C=CC(=O)N1CCN(c2nc(=O)n(-c3c(C)ccnc3C(C)C)c3nc(-c4c(O)cccc4F)c(F)cc23)C(C)C1` (stereo unspecified), which viability, T/C (compound 0.0316 µM) is on record?
The viability, T/C was 103% and 110%.

And the viability, T/C (compound 0.1 µM)?
The viability, T/C was 55.1% and 117%.

What about the viability, T/C (compound 0.316 µM) of the same molecule?
The viability, T/C was 105%.

And the viability, T/C (compound 1 µM)?
The viability, T/C was 107% and 90.3%.

And the viability, T/C (compound 3.16 µM)?
Its viability, T/C is 72.6% and 85.3%.

And the viability, T/C (compound 10 µM)?
The viability, T/C was 70.6% and 66.2%.

And the IC50 (curve of compound)?
The IC50 was over 10 µM.

For `O=C(NO)c1cnc(N2CCN(S(=O)(=O)c3ccc4ccccc4c3)CC2)nc1`, which viability, T/C (compound 0.0316 µM) is on record?
Its viability, T/C is 37.6% and 34.2% and 52.9%.

And the viability, T/C (compound 0.1 µM)?
Its viability, T/C is 16.6% and 16.8% and 20.5%.

What about the viability, T/C (compound 0.316 µM) of the same molecule?
The viability, T/C was 7.21% and 7.67% and 7.55%.

What about the viability, T/C (compound 1 µM) of the same molecule?
Its viability, T/C is 5.31% and 5.87% and 4.07%.

What about the viability, T/C (compound 3.16 µM) of the same molecule?
Its viability, T/C is 0.18% and 0.1% and 0.17%.

And the viability, T/C (compound 10 µM)?
Its viability, T/C is 0.11% (2×) and 0.08%.

What about the IC50 (curve of compound) of the same molecule?
Its IC50 is < 0.0316 µM and 0.0348 µM.

How did the IC50 (curve of first compound, second compound 0.0316 µM) turn out when `O=c1[nH]cc(F)c(=O)[nH]1` + CN(C)c1ccc(Nc2c3ccc(NC(=O)CCN4CCCC4)cc3nc3cc(NC(=O)CCN4CCCC4)ccc23)cc1 was run?
Its IC50 is 4.91 µM.

And the IC50 (curve of first compound, second compound 0.1 µM)?
The IC50 was 3.69 µM.

And the IC50 (curve of first compound, second compound 0.316 µM)?
Its IC50 is 5.53 µM.

What about the IC50 (curve of first compound, second compound 1 µM) of the same molecule?
Its IC50 is 3.16 µM.

And the IC50 (curve of first compound, second compound 3.16 µM)?
The IC50 was under 0.0316 µM.

What about the IC50 (curve of first compound, second compound 10 µM) of the same molecule?
Its IC50 is under 0.0316 µM.

What about the viability, T/C (second compound 0.0316 µM, first compound 0.0316 µM) of the same molecule?
The viability, T/C was 83.1%.

And the viability, T/C (second compound 0.0316 µM, first compound 0.1 µM)?
Its viability, T/C is 85.7%.

What about the viability, T/C (second compound 0.0316 µM, first compound 0.316 µM) of the same molecule?
Its viability, T/C is 87.9%.

What about the viability, T/C (second compound 0.0316 µM, first compound 1 µM) of the same molecule?
The viability, T/C was 79.5%.

And the viability, T/C (second compound 0.0316 µM, first compound 3.16 µM)?
The viability, T/C was 62.5%.

What about the viability, T/C (second compound 0.0316 µM, first compound 10 µM) of the same molecule?
The viability, T/C was 30.1%.

And the viability, T/C (second compound 0.1 µM, first compound 0.0316 µM)?
The viability, T/C was 105%.

What about the viability, T/C (second compound 0.1 µM, first compound 0.1 µM) of the same molecule?
The viability, T/C was 110%.

And the viability, T/C (second compound 0.1 µM, first compound 0.316 µM)?
The viability, T/C was 72.3%.

And the viability, T/C (second compound 0.1 µM, first compound 1 µM)?
The viability, T/C was 63.6%.

What about the viability, T/C (second compound 0.1 µM, first compound 3.16 µM) of the same molecule?
The viability, T/C was 67.5%.

And the viability, T/C (second compound 0.1 µM, first compound 10 µM)?
The viability, T/C was 27.4%.

And the viability, T/C (second compound 0.316 µM, first compound 0.0316 µM)?
Its viability, T/C is 88%.

What about the viability, T/C (second compound 0.316 µM, first compound 0.1 µM) of the same molecule?
Its viability, T/C is 75.3%.

And the viability, T/C (second compound 0.316 µM, first compound 0.316 µM)?
Its viability, T/C is 75.6%.

What about the viability, T/C (second compound 0.316 µM, first compound 1 µM) of the same molecule?
Its viability, T/C is 79.9%.

What about the viability, T/C (second compound 0.316 µM, first compound 3.16 µM) of the same molecule?
Its viability, T/C is 69.5%.

And the viability, T/C (second compound 0.316 µM, first compound 10 µM)?
The viability, T/C was 29.2%.

And the viability, T/C (second compound 1 µM, first compound 0.0316 µM)?
Its viability, T/C is 67.5%.

What about the viability, T/C (second compound 1 µM, first compound 0.1 µM) of the same molecule?
Its viability, T/C is 88.8%.

And the viability, T/C (second compound 1 µM, first compound 0.316 µM)?
Its viability, T/C is 70.5%.

What about the viability, T/C (second compound 1 µM, first compound 1 µM) of the same molecule?
Its viability, T/C is 65.3%.

What about the viability, T/C (second compound 1 µM, first compound 3.16 µM) of the same molecule?
The viability, T/C was 50.8%.

What about the viability, T/C (second compound 1 µM, first compound 10 µM) of the same molecule?
Its viability, T/C is 26%.

And the viability, T/C (second compound 3.16 µM, first compound 0.0316 µM)?
The viability, T/C was 43.7%.

What about the viability, T/C (second compound 3.16 µM, first compound 0.1 µM) of the same molecule?
The viability, T/C was 44.2%.

What about the viability, T/C (second compound 3.16 µM, first compound 0.316 µM) of the same molecule?
The viability, T/C was 49.5%.

And the viability, T/C (second compound 3.16 µM, first compound 1 µM)?
Its viability, T/C is 32.1%.

And the viability, T/C (second compound 3.16 µM, first compound 3.16 µM)?
The viability, T/C was 27.7%.

And the viability, T/C (second compound 3.16 µM, first compound 10 µM)?
Its viability, T/C is 21%.

What about the viability, T/C (second compound 10 µM, first compound 0.0316 µM) of the same molecule?
Its viability, T/C is 7%.

What about the viability, T/C (second compound 10 µM, first compound 0.1 µM) of the same molecule?
The viability, T/C was 6.98%.

And the viability, T/C (second compound 10 µM, first compound 0.316 µM)?
The viability, T/C was 6.89%.

What about the viability, T/C (second compound 10 µM, first compound 1 µM) of the same molecule?
The viability, T/C was 6.25%.

What about the viability, T/C (second compound 10 µM, first compound 3.16 µM) of the same molecule?
The viability, T/C was 6.48%.

And the viability, T/C (second compound 10 µM, first compound 10 µM)?
The viability, T/C was 3.81%.
